Laboratory results from article doi:10.1101/2025.05.12.653380v2 (biorxiv, 2026).

Target: T1, HPC (helicase-primase complex) of HHV1, UL5-UL52-UL8 (Human alphaherpesvirus 1 strain 17, UniProt P10189+P10236)
T1 sequence (P10189 1-882): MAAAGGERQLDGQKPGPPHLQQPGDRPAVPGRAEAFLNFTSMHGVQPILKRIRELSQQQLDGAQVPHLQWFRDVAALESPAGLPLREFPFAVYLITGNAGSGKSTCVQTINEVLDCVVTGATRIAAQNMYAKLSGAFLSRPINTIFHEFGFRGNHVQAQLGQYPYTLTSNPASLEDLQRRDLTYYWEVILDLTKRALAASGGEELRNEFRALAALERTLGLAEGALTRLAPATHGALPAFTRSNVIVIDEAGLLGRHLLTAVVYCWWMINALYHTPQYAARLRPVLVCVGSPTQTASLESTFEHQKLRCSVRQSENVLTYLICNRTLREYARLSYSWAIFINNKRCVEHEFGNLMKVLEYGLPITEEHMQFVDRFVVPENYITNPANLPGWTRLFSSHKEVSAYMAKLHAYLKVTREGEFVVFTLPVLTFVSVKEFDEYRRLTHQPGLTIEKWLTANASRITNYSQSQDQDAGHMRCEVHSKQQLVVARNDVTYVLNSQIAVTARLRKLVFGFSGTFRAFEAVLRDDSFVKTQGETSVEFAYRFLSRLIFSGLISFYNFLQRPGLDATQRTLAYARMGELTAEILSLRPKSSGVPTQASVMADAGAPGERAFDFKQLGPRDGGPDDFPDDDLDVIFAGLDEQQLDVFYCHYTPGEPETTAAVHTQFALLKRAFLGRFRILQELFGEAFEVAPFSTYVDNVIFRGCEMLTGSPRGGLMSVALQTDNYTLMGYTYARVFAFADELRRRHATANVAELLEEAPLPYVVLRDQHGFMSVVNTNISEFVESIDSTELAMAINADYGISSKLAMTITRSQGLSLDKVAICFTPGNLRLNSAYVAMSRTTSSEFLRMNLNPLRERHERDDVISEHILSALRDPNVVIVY
T1 sequence (P10236 1-1058): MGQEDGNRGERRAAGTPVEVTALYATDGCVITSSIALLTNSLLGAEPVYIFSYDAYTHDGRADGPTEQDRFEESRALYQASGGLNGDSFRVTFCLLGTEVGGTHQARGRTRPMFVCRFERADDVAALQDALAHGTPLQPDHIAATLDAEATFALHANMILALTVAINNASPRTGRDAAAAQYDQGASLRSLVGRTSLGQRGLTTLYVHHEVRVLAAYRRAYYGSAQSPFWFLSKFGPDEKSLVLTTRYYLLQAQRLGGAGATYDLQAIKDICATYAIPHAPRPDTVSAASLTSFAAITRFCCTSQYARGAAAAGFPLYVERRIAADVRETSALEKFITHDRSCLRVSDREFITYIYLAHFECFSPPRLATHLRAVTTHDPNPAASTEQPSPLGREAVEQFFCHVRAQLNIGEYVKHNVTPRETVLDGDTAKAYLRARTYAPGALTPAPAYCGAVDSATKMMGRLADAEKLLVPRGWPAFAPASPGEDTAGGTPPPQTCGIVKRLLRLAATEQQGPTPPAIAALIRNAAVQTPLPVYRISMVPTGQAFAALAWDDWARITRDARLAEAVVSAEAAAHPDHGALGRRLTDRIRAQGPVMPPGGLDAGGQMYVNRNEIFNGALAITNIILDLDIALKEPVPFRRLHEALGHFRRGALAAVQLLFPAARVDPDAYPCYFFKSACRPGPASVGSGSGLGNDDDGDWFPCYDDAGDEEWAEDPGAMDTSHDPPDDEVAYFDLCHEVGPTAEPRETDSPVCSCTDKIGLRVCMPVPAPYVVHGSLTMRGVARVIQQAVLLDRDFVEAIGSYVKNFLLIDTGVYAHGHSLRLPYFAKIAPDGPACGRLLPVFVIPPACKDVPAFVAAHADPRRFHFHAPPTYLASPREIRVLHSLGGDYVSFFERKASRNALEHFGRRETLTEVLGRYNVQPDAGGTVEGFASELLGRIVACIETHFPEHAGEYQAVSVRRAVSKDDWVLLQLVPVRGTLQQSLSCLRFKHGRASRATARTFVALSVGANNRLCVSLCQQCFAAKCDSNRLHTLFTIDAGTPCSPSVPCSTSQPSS
T1 sequence (P10192 1-750 partner): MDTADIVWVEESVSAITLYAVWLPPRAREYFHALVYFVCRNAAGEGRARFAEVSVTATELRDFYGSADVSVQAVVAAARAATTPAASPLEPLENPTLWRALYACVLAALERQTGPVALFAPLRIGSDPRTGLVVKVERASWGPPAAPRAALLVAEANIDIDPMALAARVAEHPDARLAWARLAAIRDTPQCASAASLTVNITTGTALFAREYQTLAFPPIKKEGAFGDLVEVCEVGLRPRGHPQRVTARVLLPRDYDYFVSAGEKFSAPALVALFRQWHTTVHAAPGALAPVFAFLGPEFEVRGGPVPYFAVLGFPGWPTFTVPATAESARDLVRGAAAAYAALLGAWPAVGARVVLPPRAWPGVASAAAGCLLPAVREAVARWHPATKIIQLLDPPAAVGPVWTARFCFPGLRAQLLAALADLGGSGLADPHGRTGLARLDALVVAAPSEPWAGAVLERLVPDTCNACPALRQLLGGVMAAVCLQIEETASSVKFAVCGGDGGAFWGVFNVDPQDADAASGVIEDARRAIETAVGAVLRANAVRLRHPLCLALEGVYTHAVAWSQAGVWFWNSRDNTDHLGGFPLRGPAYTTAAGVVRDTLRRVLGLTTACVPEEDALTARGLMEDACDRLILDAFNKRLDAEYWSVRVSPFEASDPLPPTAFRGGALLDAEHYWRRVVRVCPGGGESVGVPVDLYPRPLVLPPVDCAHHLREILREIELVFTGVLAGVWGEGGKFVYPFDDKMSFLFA
Test: NADH-coupled ATPase assay, Morrison fit of Kiapp, mixed inhibition model
Assay type: biochemical

Row | SMILES | Ki
1 | Cc1nc(N(C)C(=O)Cc2ccc(-c3ccccn3)cc2)sc1S(N)(=O)=O [pritelivir] | 1.99 ± 0.18 nM
2 | Cc1cccc(C)c1N(CC(=O)Nc1ccc(-c2ncon2)cc1)C(=O)C1CCS(=O)(=O)CC1 [amenamevir] | 1.84 ± 0.16 nM
